Assay results from US10336684B2, “Phenyl-(aza)cycloalkyl carboxylic acid GPR120 modulators” (BRISTOL-MYERS SQUIBB COMPANY, priority 2014, dated 2019).

target: human GPR120 (Homo sapiens (Human), UniProt Q5NUL3); test: GPR120 pERK AlphaScreen SureFire assay (human GPR120 pERK assay); assay type: cell-based; conditions: CHOA12 or CHO-K1 cells stably transfected with short form of human GPR120, 100% = 50 μM linolenic acid
Text: GPR120 activity was monitored by measuring phosphorylation of ERK (pERK), since G protein receptors are known to activate the ERK signaling cascade either directly and/or through recruitment of arrestin that serves as a scaffold for downstream signaling events.
GPR120 pERK AlphaScreen SureFire Assay
The human and mouse GPR120-mediated intracellular phosphorylated ERK assays were established using CHOA12 cells stably transfected with the short form of human or mouse GPR120 receptor. Cells were cultured in growth medium consisting of F-12 media (Invitrogen Cat. #11765) with 5% Charcoal/Dextran FBS (Invitrogen Cat. #12676-029), 500 μg/mL GENETICIN® (Life Technologies Cat. #10131-027) and 250 μg/mL Zeocin (Invitrogen Cat. #R250-01). Cells were cryo preserved at a concentration of 2×10^7 cells/mL, in 90% Charcoal/Dextran FBS and 10% DMSO, and frozen in liquid nitrogen at a low passage number.
For the pERK assay, 2×10^7 cells/mL cryopreserved human and mouse cells were thawed rapidly in a 37° C. water bath and added to a T-225 flask containing 50 mL growth medium. The flasks were placed in a tissue culture incubator overnight (37° C., 5% CO2). The next day, cells were harvested with trypsin (Gibco Cat. #25300-054), resuspended in serum-containing growth medium and counted using a Cellometer and volume adjusted to a concentration of 0.6×10^6 cells/mL. Cells were plated into 384-well clear bottom tissue culture plates (BD Cat. #353962) at 50 μL/well, for a density of 30,000 cells/well using a MULTIDROP® and incubated for 16-18 hours (overnight) at 37° C. with 5% CO2. The next day, cells were serum starved in 30 μL of F-12 media without any serum or antibiotics for 2 hours at 37° C.
Test compounds were 3-fold, 11-point serially diluted in DMSO in a REMP assay plate (Matrix Cat. #4307) by Tecan and 5 μL was transferred into an ECHO source plate (Labcyte Cat. #LC-0200). Cells were then stimulated with 50 nL of compound dilutions using ECHO liquid handler for 7 minutes at 37° C. Compounds ranged from final assay concentrations of 33.33 μM to 0.56 nM.
The media was then dumped and cells lysed with 20 μL of 1× Lysis buffer from the AlphaScreen SureFire Phospho-ERK 1/2 Kit (Perkin Elmer Cat. #6760617M). The lysis buffer was diluted 5-fold with water before use. The plate was agitated on a shaker for 10 minutes after which 2 μL was transferred into a 384-well white proxiplate (Perkin Elmer Cat. #6008289). The SureFire assay reagent mix was prepared by mixing 60 parts Reaction Buffer, 10 parts Activation Buffer, 1 part Donor Beads, 1 part Acceptor Beads (Perkin Elmer Cat. #TGRES10K). 3.5 μL/well of this reagent mix was manually added to the proxiplate with a multichannel pipettor. Plates were spun down at 1000 rpm for 2 minutes, followed by light-protected incubation at room temperature for 2 hours. The plates were read on the Alpha-technology compatible Envision multilabel plate reader using AlphaScreen protocol according to manufacturer's specifications. The agonist effect of compounds was expressed as 100×(average sample-average blank)/(average total−average blank) where sample is the luminescence activity in the presence of test compound, blank is equal to the luminescence activity in the presence of DMSO control and the total is signal induced by 50 μM linolenic acid as reference compound. Activation data for the test compound over a range of concentrations was plotted as percentage activation of the test compound (100%=maximum response). After correcting for background, EC50 values were determined. The EC50 is defined as the concentration of test compound which produces 50% of the maximal response and was quantified using the 4 parameter logistic equation to fit the data.
The human and mouse GPR120-mediated intracellular phosphorylated ERK assays were also established using CHO-K1 cells stably transfected with the short form of human or mouse GPR120 receptor. […]

Chain of human GPR120 (Q5NUL3 whole entry): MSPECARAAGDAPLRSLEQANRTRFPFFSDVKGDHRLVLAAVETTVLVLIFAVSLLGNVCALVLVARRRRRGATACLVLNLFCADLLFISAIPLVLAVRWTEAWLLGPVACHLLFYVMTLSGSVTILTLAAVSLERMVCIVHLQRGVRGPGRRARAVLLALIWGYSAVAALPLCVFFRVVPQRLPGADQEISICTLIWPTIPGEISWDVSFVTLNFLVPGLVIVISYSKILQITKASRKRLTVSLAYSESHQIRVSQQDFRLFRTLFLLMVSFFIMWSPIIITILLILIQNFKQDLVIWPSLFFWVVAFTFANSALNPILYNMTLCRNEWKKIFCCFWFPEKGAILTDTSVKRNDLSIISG

| Compound | EC50 [µM] |
| --- | --- |
| O=C(O)COCCc1ccc([C@H]2CCC[C@@H](Oc3ccccc3)C2)cc1 (single isomer, unassigned) [Example 5] | 1.03 |
| O=C(O)COCCc1ccc(C2CCCCC(Oc3ccccc3)C2)cc1 (single isomer, unassigned) [Example 16, 2-(4-(3-Phenoxycycloheptyl)phenethoxy)acetic acid] | 0.75 |
| O=C(O)CCCCc1ccc([C@@H]2CCC[C@H](Oc3ccccc3)C2)cc1 (single isomer, unassigned) [Example 1, 5-(4-((+/−)-3-Phenoxycyclohexyl)phenyl)pentanoic acid] | 0.48 |
| O=C(O)CCCCc1ccc(C2CCCCC(Oc3ccccc3)C2)cc1 (single isomer, unassigned) [Example 12, 5-(4-(3-Phenoxycycloheptyl)phenyl)pentanoic acid] | 0.31 |
| O=C(O)CCCCc1ccc(N2CCC[C@H](Oc3ccc(F)cc3)C2)cc1 [Example 24, (S)-5-(4-(3-(4-Fluorophenoxy)piperidin-1-yl)phenyl)pentanoic acid] | 0.93 |
| O=C(O)[C@H]1C[C@@H]1COc1ccc(C2CCCC(Oc3ccccc3)C2)cc1 (mixture of isomers) [Example 11, (1S,2S)-2-((4-((+/−)-3-Phenoxycyclohexyl)phenoxy)methyl)cyclopropanecarboxylic acid] | 0.6 |
| O=C(O)CCCCc1ccc([C@@H]2CCC[C@@H](Oc3ccccc3)C2)cc1 (single isomer, unassigned) [Example 2, 5-(4-((+/−)-3-Phenoxycyclohexyl)phenyl)pentanoic acid] | 2.36 |
| O=C(O)CCCCc1ccc(C2CCC(Oc3ccccc3)C2)cc1 (stereo not shown) [Example 18, 5-(4-(3-Phenoxycyclopentyl)phenyl)pentanoic acid] | 1.38 |
| O=C(O)CCCCc1ccc(N2CCC[C@H](Oc3ccccc3)C2)cc1F [Example 26, (S)-5-(2-Fluoro-4-(3-phenoxypiperidin-1-yl)phenyl)pentanoic acid] | 0.57 |
| O=C(O)[C@H]1C[C@@H]1CCc1ccc([C@H]2CCCC(Oc3ccccc3)C2)cc1 (single isomer, unassigned) [Example 8] | 1.45 |
| O=C(O)COCCc1ccc(C2CCCCC(Oc3ccccc3)C2)cc1 (single isomer, unassigned) [Example 15, 2-(4-(3-Phenoxycycloheptyl)phenethoxy)acetic acid] | 1.99 |
| CC(C)O[C@H]1CCC[C@@H](c2ccc(CCCCC(=O)O)cc2)C1 (single isomer, unassigned) [Example 3, 5-(4-((+/−)-3-Isopropoxycyclohexyl)phenyl)pentanoic acid] | 1.16 |
| O=C(O)CCCCc1ccc(N2CCC[C@H](Oc3ccccc3)C2)cc1 [Example 23, (S)-5-(4-(3-Phenoxypiperidin-1-yl)phenyl)pentanoic acid] | 0.5 |
| O=C(O)CCCCc1c(F)cc(N2CCC[C@H](Oc3ccccc3)C2)cc1F [Example 25, (S)-5-(2,6-Difluoro-4-(3-phenoxypiperidin-1-yl)phenyl)pentanoic acid] | 0.54 |
| O=C(O)[C@@H]1C[C@@H]1COc1ccc(N2CCCC(Oc3ccccc3)C2)cc1 (single isomer, unassigned) [Example 28, (+/−)-2-((4-(3-Phenoxypiperidin-1-yl)phenoxy)methyl)cyclopropanecarboxylic acid] | 4.98 |
| O=C(O)COCCc1ccc([C@@H]2CCC[C@H](Oc3ccccc3)C2)cc1 (single isomer, unassigned) [Example 6] | 0.18 |
| O=C(O)COCCCc1ccc(N2CCCC(Oc3ccccc3)C2)cc1 (stereo not shown) [Example 27, 2-(3-(4-(3-Phenoxypiperidin-1-yl)phenyl)propoxy)acetic acid] | 4.13 |
| O=C(O)COCCc1ccc(C2CCCCC(Oc3ccccc3)C2)cc1 (single isomer, unassigned) [Example 17, 2-(4-(3-Phenoxycycloheptyl)phenethoxy)acetic acid] | 0.27 |
| O=C(O)[C@H]1C[C@@H]1CCc1ccc([C@@H]2CCCC(Oc3ccccc3)C2)cc1 (single isomer, unassigned) [Example 9] | 0.65 |
| O=C(O)CCCCc1ccc(C2CCCCC(Oc3ccccc3)C2)cc1 (single isomer, unassigned) [Example 13, 5-(4-(3-Phenoxycycloheptyl)phenyl)pentanoic acid] | 1.03 |
| O=C(O)[C@@H]1C[C@H]1CCc1ccc([C@@H]2CCC[C@H](Oc3ccccc3)C2)cc1 (single isomer, unassigned) [Example 10] | 0.53 |

The next lines start with the values.

| EC50 [µM] | Compound |
| --- | --- |
| 3.24 | N#Cc1ccc(O[C@H]2CCC[C@@H](c3ccc(CCOCC(=O)O)cc3)C2)cc1 (racemic) [Example 39] |
| 4.24 | O=C(O)COCCc1ccc([C@@H]2CCC[C@H](Oc3ccc(F)cc3)C2)cc1 (racemic) [Example 37] |
| > 32 | O=C(O)[C@H]1C[C@@H]1COc1ccc([C@@H]2CCC[C@@H](Oc3ccccc3)C2)cc1 (racemic) [Example 42] |
| 6.26 | O=C(O)[C@@H]1C[C@H]1CCc1ccc(N2CCC[C@@H](c3ccccc3)C2)cc1 [Example 55] |
| 1.31 | O=C(O)[C@H]1C[C@@H]1CCc1ccc(N2CCC[C@H](Oc3ccccc3)C2)cc1 [Example 49] |
| 4.84 | O=C(O)[C@@H]1C[C@H]1CCc1ccc(N2CCC[C@H](c3ccccc3)C2)cc1 [Example 56] |
| 0.72 | O=C(O)COCCc1ccc([C@@H]2CCC[C@H](Oc3ccc(Cl)cc3)C2)cc1 (racemic) [Example 38] |
| 1.34 | O=C(O)[C@H]1C[C@@H]1CCc1ccc(N2CCC[C@H](c3ccccc3)C2)cc1 [Example 54] |
| 3.22 | O=C(O)[C@H]1C[C@@H]1CCc1ccc(N2CCC[C@@H](Oc3ccccc3)C2)cc1 [Example 48] |
| 0.41 | O=C(O)[C@@H]1C[C@H]1CCc1ccc(N2CCC[C@@H](Oc3ccccc3)C2)cc1 [Example 50] |
| 3.75 | O=C(O)[C@H]1C[C@@H]1CCc1ccc([C@@H]2CCC[C@@H](Oc3ccccc3)C2)cc1 (racemic) [Example 40] |
| 4.32 | O=C(O)COCCc1ccc(N2CC(Oc3ccccc3)C2)cc1 [Example 63] |
| 1.54 | O=C(O)[C@@H]1C[C@H]1CCc1ccc(N2CCC[C@H](Oc3ccc(F)cc3)C2)cc1 [Example 52] |
| 1.9 | O=C(O)[C@@H]1C[C@H]1CCc1ccc(N2CCC[C@H](Oc3ccccc3)C2)cc1 [Example 51] |
| 4.09 | O=C(O)CCCCc1ccc(N2CCC(Oc3ccccc3)CC2)cc1 [Example 58] |
| 3.77 | CC(C)OC1CCC(c2ccc(CCCCC(=O)O)cc2)C1 (stereo not shown) [Example 47] |
| 1.94 | O=C(O)[C@@H]1C[C@H]1CCc1ccc([C@@H]2CCC[C@@H](Oc3ccccc3)C2)cc1 (racemic) [Example 41] |
| 2.26 | O=C(O)COCCc1ccc(N2CCCC(c3ccccc3)C2)cc1 (stereo not shown) [Example 57] |
| 0.31 | Cc1ccc(O[C@H]2CCC[C@@H](c3ccc(CCOCC(=O)O)cc3)C2)cc1 (racemic) [Example 36] |
| 0.22 | O=C(O)CCCCc1ccc(N2CC[C@H](Oc3ccccc3)C2)cc1 [Example 60] |
| 3.38 | O=C(O)CCCCc1ccc(N2CC[C@@H](Oc3ccccc3)C2)cc1 [Example 61] |
| 0.3 | Cc1ccc(O[C@H]2CCC[C@@H](c3ccc(CCOCC(=O)O)cc3)C2)cc1F (racemic) [Example 34] |
| 3.61 | O=C(O)[C@H]1C[C@@H]1CCc1ccc(N2CCC[C@@H](c3ccccc3)C2)cc1 [Example 53] |
| 10.3 | O=C(O)[C@@H]1C[C@H]1CCc1ccc(N2CCCC(Oc3ccccc3)CC2)cc1 (stereo partly shown) [Example 62] |
| 3.12 | O=C(O)CCCCc1ccc(C2CCCCC(Oc3ccccc3Cl)C2)cc1 (stereo not shown) [Example 46] |
